Laboratory results from patent US11590233B2, “Porphyrin compounds and compositions useful for treating cancer” (OncoSelect Therapeutics, LLC, priority 2016, dated 2023).

Tests used:
a cancer cell line = assay: TCPP uptake by a cancer cell treated with different inhibitors of endocytosis (FIG. 3); format: cell-based, human
Description: (§1) Porphyrin tetrakis(4-carboxyphenyl)porphyrin (TCPP) uptake by a panel of human lung cancer cell lines including, HCC15, H157, and H358 were examined using flow cytometry in under varying conditions to manipulate clathrin-dependent and independent endocytosis by chemical inhibitors. […] It has been speculated that preferential porphyrin uptake by cancer cells as compared to non-cancer cells is facilitated by the increased number of LDL receptor (LDLR) on the surface of cancer cells.

HCC15 = assay: TCPP uptake in cancer cells vs non-cancer cells by flow cytometry; format: cell-based, human; settings: 10 ug/ml, HCC15 vs bone marrow cells
Description: (§2) Porphyrin tetrakis(4-carboxyphenyl)porphyrin (TCPP) uptake by a panel of human lung cancer cell lines including, HCC15, H157, and H358 were examined using flow cytometry in under varying conditions to manipulate clathrin-dependent and independent endocytosis by chemical inhibitors. Referring now to FIG. 1, TCPP uptake in cancer cells (HCC15) as compared to bone marrow cells in a dose dependent manner is illustrated. Similar results are observed with mouse normal lung cells as is shown for bone marrow cells. The uptake of TCPP by HCC15 is greater than 2-fold at 10 ug/ml as compared to the non-cancer cells. […] Chlorpromazine, an antagonist of clathrin-mediated endocytosis, inhibited TCPP uptake in a cancer cell line by up to 80% as is illustrated in FIG. 3. In contrast, the clathrin-independent endocytosis inhibitor filipin had no effect on TCPP uptake. It has been speculated that preferential porphyrin uptake by cancer cells as compared to non-cancer cells is facilitated by the increased number of LDL receptor (LDLR) on the surface of cancer cells. To examine LDLR contribution on TCPP uptake, lung cancer cells were manipulated to express no LDLR, which reduced TCPP uptake by only 20%.

[1] = test system: human fibroblasts without functional LDLR; assay: TCPP uptake in human fibroblasts without functional LDLR; format: cell-based
HCC15, H157 and H358 = assay: TCPP uptake in cancer cell lines under sucrose or cold temperature (FIG. 2); format: cell-based, human
Description: as §1

lung cancer cells = assay: TCPP uptake in lung cancer cells manipulated to express no LDLR; format: cell-based, human; settings: lung cancer cells expressing no LDLR
Description: as §2

With `CN(C)CCCN1c2ccccc2Sc2ccc(Cl)cc21` [Chlorpromazine] the “inhibition of TCPP uptake” value (a cancer cell line; antagonist of clathrin-mediated endocytosis, a cancer cell line) was “up to 80%”.

In the case of `O=C(O)c1ccc(-c2c3nc(c(-c4ccc(C(=O)O)cc4)c4ccc([nH]4)c(-c4ccc(C(=O)O)cc4)c4nc(c(-c5ccc(C(=O)O)cc5)c5ccc2[nH]5)C=C4)C=C3)cc1` [TCPP, tetrakis(4-carboxyphenyl)porphyrin], the “uptake of TCPP by HCC15 as compared to the non-cancer cells” value (HCC15) is reported as “greater than 2 fold”, the “inhibition of TCPP uptake” value [1] is reported as “no inhibition” and the “inhibition of TCPP uptake by cold temperature” value (HCC15, H157 and H358; cold temperature) is reported as “nearly completely inhibited”. The “reduction of TCPP uptake” value (lung cancer cells) was 20%.

With `CCCCC[C@@H](O)[C@H]1C(=O)O[C@H](C)[C@@H](O)/C=C/C=C/C=C/C=C/C=C(\C)[C@@H](O)C[C@H](O)C[C@H](O)C[C@H](O)C[C@H](O)C[C@H](O)C[C@@H]1O` [filipin] the “effect on TCPP uptake” value (a cancer cell line; clathrin-independent endocytosis inhibitor) was “no effect”.

In the case of `OC[C@H]1O[C@@](CO)(O[C@H]2O[C@H](CO)[C@@H](O)[C@H](O)[C@H]2O)[C@@H](O)[C@@H]1O` [sucrose], the “inhibition of TCPP uptake by sucrose” value (HCC15, H157 and H358; flow cytometry) is reported as “moderately inhibited”.
